Measurements: US20070099863A1, “Compounds for the treatment of demyelinating and autoimmune diseases” (priority 2003, published 2007)
Structures can show the parent of a compound that is named as a salt. Each block holds one molecule with its values, some of them ahead of it.

Columns and labels:
[1] = system: P2X receptors in oligodendrocytes; assay: Whole-cell patch-clamp recordings in cultured oligodendrocytes; format: cell-based, rat; settings: for induction of input current by agonist: agonist 100 μM; for EC50: cultured oligodendrocytes, whole-cell patch-clamp, read-out: EC50 of amplitude of currents generated by agonist
Experimental: (§1) The cell cultures were carried out from the optic nerve of the perinatal rat (P12) following established protocols, which were adapted and introduced into the laboratory according to a recent description (Matute et al, 1997, Proc. Natl. Acad. Sci. USA 94, 8830-8835).
The electrophysiological recordings were carried out in 2 to 5 day cultures, and according to the guidelines indicated in previous works (Patneau et al 1994, Neuron 12: 357-371). The cells were recorded in a chamber which allowed the composition of the extracellular medium to vary by means of a constant flow (0.5-1 mL/min). The recording electrodes were glass capillaries which contained specific solutions compatible with the cytoplasm ion concentrations. The study of the responses mediated by the purinergic receptors was carried out using the “whole-cell patch-clamp” technique, measuring the currents generated by the external application of selective agonists and antagonists of the aforementioned receptors.

[2] = system: P2X receptors in oligodendrocytes; assay: Cytosolic calcium levels (Fura-2) in oligodendrocyte cultures; format: cell-based, rat; settings: for promotion of the increase of [Ca2+]i generated by ATP: propofol 60 μM
Experimental: as §1
The concentration of cytosol calcium was determined by the method of Grynkiewikcz et al (1985; J. Biol. Chem. 260, 3440-3450). The oligodendrocytes were loaded with […] of Fura-2/AM, and they were then washed and studied in a Zeiss inverted microscope equipped with a monochromator, 40× immersion objective, an Orca high resolution digital camera, and AquaCosmos software (Hamamatsu Photonics). The changes in cytosol calcium levels in response to agonists and antagonists, in the presence and absence of extracellular calcium, were studied. The calibration was performed at the end of the studies by means of the successive application of ionomycin and EGTA, and the calcium concentration was estimated using the measurement of the 340/380 nm ratio.

oligodendrocytes = assay: Oligodendroglial death in culture; format: cell-based, rat; settings: for toxicity of purinergic agonists for oligodendrocytes: culture
Experimental: as §1, with “Death is calcium dependent, since its elimination from the culture media leads to it not being caused. […] The” for “The”

[3] = system: oligodendrocytes of isolated optic nerve; assay: Isolated optic nerve perfusion, oligodendrocyte damage in situ; parameters: species or system rat
Experimental: Next, they were incubated with purinergic agonists and antagonists for different times. Later, the nerves were perfused for 1 to 24 hours with normal aCSF saturated with oxygen. After this time passed the damage was evaluated histologically as we have described in vivo (Matute, 1998, Proc. Natl. Acad. Sci. USA 95: 10229-10234), and the biochemical changes which are underlying to this damage were analysed.
To determine if ATP is toxic to the oligodendrocytes in a preparation of nerve tissue without dissociating, entire optic nerves isolated from adult rats were perfused with artificial cerebrospinal fluid with ATP (100 μM) for 3 h. […] The damaged cells are located in the longitudinal axis of the nerve and make up part of interfascicular oligodendrocyte rows.

EAE in Lewis rats = assay: Acute EAE induced with basic myelin protein; format: in vivo, rat; settings: 7 to 14 days post-injection
EAE in DA rats = assay: Chronic-recurrent-remittent EAE model; format: in vivo, rat; settings: o-ATP 2.5 mg/kg every 12 h, from maximum intensity of symptoms
Experimental: Later, the efficacy of o-ATP in improving the symptoms of EAE was evaluated in a chronic-recurrent-remittent model. For this, DA rats were immunised with syngeneic spinal cord, the appearance of severe neurological deficits being observed 7-9 days post-injection, and which reached their first peak around 11 days.

P2X7 receptors = assay: P2X7 receptor levels in lumbar-sacral spinal cord of EAE animals (Western blot); format: in vivo, rat; settings: EAE animals treated with o-ATP; untreated EAE reduced by half
P2X1 = target: T1, P2X1 (Homo sapiens, UniProt P51575); settings: P2X1 subtype; read-out: IC50 in relation to P2X1; cited from earlier work
T1 sequence (P51575 1-399): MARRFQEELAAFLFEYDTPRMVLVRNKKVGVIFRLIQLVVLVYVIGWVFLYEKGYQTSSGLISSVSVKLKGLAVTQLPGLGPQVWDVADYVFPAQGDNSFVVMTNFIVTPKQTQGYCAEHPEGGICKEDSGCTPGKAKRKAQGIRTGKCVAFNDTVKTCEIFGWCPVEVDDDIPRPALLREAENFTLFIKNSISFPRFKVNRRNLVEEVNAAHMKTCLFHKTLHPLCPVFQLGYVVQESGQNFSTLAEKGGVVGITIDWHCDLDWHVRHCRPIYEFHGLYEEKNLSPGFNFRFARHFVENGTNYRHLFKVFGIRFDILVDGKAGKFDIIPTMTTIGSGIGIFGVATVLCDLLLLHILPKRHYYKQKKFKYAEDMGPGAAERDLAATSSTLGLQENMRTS

P2X4 = target: T2, P2X4 (Homo sapiens, UniProt Q99571); settings: P2X4 subtype; read-out: IC50 in relation to P2X4; cited from earlier work
T2 sequence (Q99571 1-388): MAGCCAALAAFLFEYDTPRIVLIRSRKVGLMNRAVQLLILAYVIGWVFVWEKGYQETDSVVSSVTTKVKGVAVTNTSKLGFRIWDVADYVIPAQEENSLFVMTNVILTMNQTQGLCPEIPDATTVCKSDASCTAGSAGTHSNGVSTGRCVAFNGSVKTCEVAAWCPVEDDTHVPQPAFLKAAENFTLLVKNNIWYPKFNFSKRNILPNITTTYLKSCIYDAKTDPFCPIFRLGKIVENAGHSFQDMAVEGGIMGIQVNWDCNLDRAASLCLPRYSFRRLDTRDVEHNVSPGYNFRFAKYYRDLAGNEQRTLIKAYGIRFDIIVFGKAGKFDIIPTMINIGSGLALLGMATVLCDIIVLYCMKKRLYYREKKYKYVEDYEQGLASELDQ

optic nerve = assay: Infusion of agonists over the optic nerve in vivo (osmotic pumps); parameters: species or system rabbit; settings: infused 3 days by osmotic pumps, examined 7 days after start
Experimental: The experiments on the optic nerve were carried out in rabbits (New Zealand White) which, due to their size, enable better manipulation in experimental surgery. The procedure used was that described previously (Matute, 1998, Proc. Natl. Acad. Sci. 95, 10229-10234). The purinergic agonists were applied using osmotic micropumps which released small quantities of solute for a determined time. Later, the effect of this application on the nerve was evaluated by means of a panel of oligodendrocyte markers and their progenitors, myelin, axonal integrity, astrogliosis y microgliosis.
Next, the ATP-γ-S and BzATP agonists were infused over the optic nerve using osmotic pumps which released very small quantities of solute for 3 days. […] Also, this zone had intense gliosis, lack of myelin and axonal damage (FIG. 6).

P2X3 = target: T3, P2X3 (Homo sapiens, UniProt P56373); settings: P2X3 subtype; read-out: IC50 in relation to P2X3; cited from earlier work
T3 sequence (P56373 1-397): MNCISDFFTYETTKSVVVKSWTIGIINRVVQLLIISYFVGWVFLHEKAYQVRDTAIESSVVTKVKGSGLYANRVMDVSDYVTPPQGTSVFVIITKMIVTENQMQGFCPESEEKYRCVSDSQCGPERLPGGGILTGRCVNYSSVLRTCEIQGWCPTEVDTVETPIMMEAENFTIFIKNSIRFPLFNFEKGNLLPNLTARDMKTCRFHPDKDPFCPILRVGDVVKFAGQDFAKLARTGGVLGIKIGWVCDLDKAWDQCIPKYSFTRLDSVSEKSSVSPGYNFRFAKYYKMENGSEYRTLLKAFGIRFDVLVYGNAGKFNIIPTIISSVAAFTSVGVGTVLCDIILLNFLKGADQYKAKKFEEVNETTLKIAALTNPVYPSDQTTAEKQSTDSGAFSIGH

Molecule: CC(C)c1cccc(C(C)C)c1O [propofol]
effect on ATP currents ([1]; propofol 60 μM): does not alter these currents
promotion of the increase of [Ca2+]i generated by ATP ([2]; 0.1 mM ATP): 60%±22
promotion of the increase of [Ca2+]i generated by ATP ([2]; 1 mM ATP): 77%±34

Molecule: Nc1ncnc2c1ncn2[C@@H]1O[C@H](COP(=O)(O)CP(=O)(O)OP(=O)(O)O)[C@@H](O)[C@H]1O [α,β-Me-ATP, α,β-methylene-ATP]
induction of input current by agonist [1]: did not generate currents
toxicity of purinergic agonists for oligodendrocytes (oligodendrocytes): toxic

Molecule: Nc1ncnc2c1ncn2[C@@H]1O[C@H](COP(=O)(O)OP(=O)(O)OP(=O)(O)O)[C@@H](O)[C@H]1O [ATP]
oligodendrocytes showing non-desensitising input current ([1]; ATP 1 mM, n=47): 77.3%±7.9
EC50 [1]: 8770 µM
cytosol [Ca2+]i after agonist ([2]; ATP 10 μM, basal 250±65 nM): 1200 ± 468 nM
death of oligodendrocytes (oligodendrocytes; ATP 0.01-1 mM, all concentrations tested): 15-27%
increase in number of cells with nuclear condensation vs control nerves ([3]; ATP 100 μM for 3 h, isolated adult rat optic nerve): > 3 times

Molecule: Nc1ncnc2c1ncn2[C@@H](C=O)O[C@@H](C=O)COP(=O)(O)OP(=O)(O)OP(=O)(O)O [o-ATP, sodium salt of Adenosine 5-triphosphate, oxidised with periodate]
effect on ATP currents ([1]; o-ATP, concentration not given): partially blocks
reduction of the increase in [Ca2+]i induced by Bz-ATP ([2]; o-ATP 1 mM): 63±8
effect on oligodendroglial death due to ATP (oligodendrocytes; o-ATP (FIG. 4)): can be prevented
effect on symptoms of acute EAE (EAE in Lewis rats; o-ATP 1 and 5 mg/kg every 12 h): reduced or prevented the appearance of symptoms
effect on symptoms of chronic-recurrent-remittent EAE (EAE in DA rats): reduced the symptoms and also eliminated those common to the chronic phase
levels of P2X7 receptors in lumbar-sacral spinal cord (P2X7 receptors): returned to those of the controls

Molecule: O=C(Nc1ccc(C(=O)Nc2ccc(C(=O)Nc3ccc(S(=O)(=O)O)c4cc(S(=O)(=O)O)cc(S(=O)(=O)O)c34)cc2)cc1)Nc1ccc(C(=O)Nc2ccc(C(=O)Nc3ccc(S(=O)(=O)O)c4cc(S(=O)(=O)O)cc(S(=O)(=O)O)c34)cc2)cc1 [NF279]
IC50 (P2X1): 0.02 µM
IC50 (P2X4): > 30 µM

Molecule: Nc1ncnc2c1ncn2[C@@H]1O[C@H](COP(=O)(O)OP(=O)(O)OP(O)(O)=S)[C@@H](O)[C@H]1O [ATP-γ-S]
toxicity of purinergic agonists for oligodendrocytes (oligodendrocytes): toxic
histological examination of optic nerve after agonist infusion (optic nerve): tissue damage

EC50 [1]: 520 µM
Molecule: 2′,3′-O-(4-benzoyl-4-benzoyl) [BzATP]
induction of input current by agonist [1]: induced similar responses
entrance of Ca2+ into oligodendrocytes ([2]; Bz-ATP 0.01-1 mM): activates the entrance of Ca^2+ into oligodendrocytes in a dose dependent way
toxicity of purinergic agonists for oligodendrocytes (oligodendrocytes): toxicity similar to ATP
histological examination of optic nerve after agonist infusion (optic nerve): tissue damage

Molecule: O=c1[nH]cnc2c1ncn2C1OC(COP(=O)(O)OP(=O)(O)OP(=O)(O)OP(=O)(O)OP(=O)(O)OCC2OC(n3cnc4c(=O)[nH]cnc43)C(O)C2O)C(O)C1O (centres unmarked) [Ip5I, pentapotassium salt of P^1,P^5-Diinosine-5-pentaphosphate]
IC50 (P2X1): 0.003 µM
IC50 (P2X3): 3 µM

Molecule: [Cu+2] [Cu^2+]
effect on ATP currents ([1]; Cu2+ 1 mM): reduces ATP currents

Molecule: Cc1nc(N=Nc2ccc(S(=O)(=O)O)cc2S(=O)(=O)O)c(COP(=O)(O)O)c(C=O)c1O [PPADS, tetrasodium salt of pyridoxalphosphate-6-azophenyl-2′,4′-disulfonic acid]
effect on currents induced by ATP ([1]; PPADS 100 μM): completely blocked
effect on Ca2+ entrance induced by Bz-ATP ([2]; PPADS): blocked
effect on [Ca2+]i response to ATP ([2]; PPADS 50 μM, ATP 10 μM): repressed
effect on ATP-induced oligodendrocyte death (oligodendrocytes; PPADS 50 μM): inhibited
effect on ATP-induced oligodendrocyte death in isolated optic nerve ([3]; PPADS 10 μM with ATP): prevents the death of the oligodendrocytes
effect on symptoms and course of acute EAE (EAE in Lewis rats; PPADS 30 mg/kg two times per day): did not improve the symptoms or the course of the disease

Molecule: O=C(Nc1cccc(C(=O)Nc2ccc(S(=O)(=O)O)c3cc(S(=O)(=O)O)cc(S(=O)(=O)O)c23)c1)Nc1cccc(C(=O)Nc2ccc(S(=O)(=O)O)c3cc(S(=O)(=O)O)cc(S(=O)(=O)O)c23)c1 [NF023, hexasodium salt of 8,8′-[carbonylbis[imino-3,1-phenylenecarbonylimino]bis-1,3,5-naphthalenetrisulfonic acid]]
IC50 (P2X3): 29 µM
